According to patent US10173971B2, “Picolinamides with fungicidal activity” (DOW AGROSCIENCES LLC, priority 2014, dated 2019):
Read-outs that look alike come from different tables or passages of the source.

Experiments:
Puccinia triticina = assay: Fungicidal activity: wheat brown rust (PUCCRT), wheat seedlings, booth sprayer to run-off or track spray; type: in vivo; details: for pest or weed control at 121.5 g/ha: Low-Volume Cereal Activity at 121.5 g/H; for pest or weed control at 100 ppm: High-Volume Cereal Activity at 100 ppm
Zymoseptoria tritici = assay: Fungicidal activity: leaf blotch of wheat (SEPTTR), wheat seedlings, booth sprayer to run-off or track spray; type: in vivo; details: for pest or weed control at 121.5 g/ha: Low-Volume Cereal Activity at 121.5 g/H; for pest or weed control at 100 ppm: High-Volume Cereal Activity at 100 ppm
[1] = 24 h, 1 Day Protectant, read-out: PUCCRT 1DP
[2] = 72 h, 3 Day Curative, read-out: PUCCRT 3DC
[3] = 24 h, 1 Day Protectant, read-out: SEPTTR 1DP
[4] = 72 h, 3 Day Curative, read-out: SEPTTR 3DC
[5] = 3DC (Day Curative), read-out: PUCCRT 3DC
[6] = 3DC (Day Curative), read-out: SEPTTR 3DC

SMILES | pest or weed control at 121.5 g/ha (Puccinia triticina; [1]) | pest or weed control at 121.5 g/ha (Puccinia triticina; [2]) | pest or weed control at 121.5 g/ha (Zymoseptoria tritici; [3]) | pest or weed control at 121.5 g/ha (Zymoseptoria tritici; [4]) | pest or weed control at 100 ppm (Puccinia triticina; [1]) | pest or weed control at 100 ppm (Puccinia triticina; [5]) | pest or weed control at 100 ppm (Zymoseptoria tritici; [3]) | pest or weed control at 100 ppm (Zymoseptoria tritici; [6])
COc1ccnc(C(=O)N[C@@H](C)C(=O)O[C@@H](C)[C@H](Cc2ccccc2)C(C)(C)Oc2ccc(Cl)cc2Cl)c1OCOC(C)=O [compound 254] | 80 to 100% | 0 to 80% | 80 to 100% | 80 to 100% | – | – | – | –
CC[C@H](Oc1ccccc1)[C@@H](Cc1ccccc1)[C@H](C)OC(=O)[C@H](C)NC(=O)c1nccc(OC)c1OC(C)=O [compound 193] | 80 to 100% | 80 to 100% | 80 to 100% | 0 to 80% | – | – | – | –
CC[C@H](NC(=O)c1nccc(OC)c1OCOC(C)=O)C(=O)O[C@@H](C)C(Cc1cccc(OC)c1)Cc1cccc(OC)c1 [compound 275] | 80 to 100% | 0 to 80% | 0 to 80% | – | – | – | – | –
CCCOC[C@@H](Cc1ccc(OC)c(Cc2ccccc2)c1)[C@H](C)OC(=O)[C@H](C)NC(=O)c1nccc(OC)c1OCOC(C)=O [compound 258] | 0 to 80% | 0 to 80% | 0 to 80% | 0 to 80% | – | – | – | –
COc1ccnc(C(=O)N[C@@H](C)C(=O)O[C@@H](C)[C@@H](COCCC(C)C)Cc2ccccc2)c1O [compound 141] | – | – | – | – | 0 to 80% | 0 to 80% | 80 to 100% | 0 to 80%
CCCOC[C@@H](Cc1ccccc1)[C@H](C)OC(=O)[C@H](C)NC(=O)c1nccc(OC)c1OCOC(C)=O [compound 162] | 80 to 100% | 80 to 100% | 80 to 100% | 80 to 100% | 80 to 100% | 80 to 100% | 80 to 100% | 80 to 100%
CC[C@H](NC(=O)c1nccc(OC)c1OC(C)=O)C(=O)O[C@@H](C)C(Cc1cccc(OC)c1)Cc1cccc(OC)c1 [compound 271] | 0 to 80% | – | 0 to 80% | – | – | – | – | –
COc1ccnc(C(=O)N[C@@H](C)C(=O)O[C@@H](C)[C@H](Cc2ccc(F)cc2)C(C)(C)OCc2ccc(F)cc2)c1O [compound 139] | – | – | – | – | 0 to 80% | – | 0 to 80% | 0 to 80%
COc1ccnc(C(=O)N[C@@H](C)C(=O)O[C@@H](C)[C@H](Cc2ccc(F)cc2)C(C)(C)OCc2ccc(F)cc2)c1OC(C)=O [compound 247] | 0 to 80% | – | 0 to 80% | 0 to 80% | – | – | – | –
COc1ccnc(C(=O)N[C@@H](C)C(=O)O[C@@H](C)[C@@H](COc2ccccc2)Cc2ccccc2)c1OCOC(C)=O [compound 208] | 80 to 100% | 0 to 80% | 80 to 100% | 0 to 80% | – | – | – | –
CCCC[C@H](c1ccccc1)[C@H](C)OC(=O)[C@H](C)NC(=O)c1nccc(OC)c1OCOC(=O)C(C)C [compound 200] | 80 to 100% | 80 to 100% | 80 to 100% | 80 to 100% | – | – | – | –
CC[C@@H](Oc1ccccc1)[C@@H](Cc1ccccc1)[C@H](C)OC(=O)[C@H](C)NC(=O)c1nccc(OC)c1OCOC(C)=O [compound 192] | 80 to 100% | 80 to 100% | 80 to 100% | 80 to 100% | – | – | – | –
COc1ccnc(C(=O)N[C@@H](C)C(=O)O[C@@H](C)[C@@H](COCCC(C)C)Cc2ccc(F)cc2)c1OCOC(C)=O [compound 251] | 80 to 100% | 0 to 80% | 0 to 80% | 80 to 100% | – | – | – | –
CCOC[C@H](Oc1ccc(C)cc1)[C@@H](Cc1ccc(F)cc1)[C@H](C)OC(=O)[C@H](C)NC(=O)c1nccc(OC)c1O [compound 105] | – | – | – | – | 80 to 100% | 0 to 80% | 0 to 80% | 0 to 80%
CC[C@H](Cc1ccccc1)[C@@H](Cc1ccc(OC(F)(F)F)cc1)[C@H](C)OC(=O)[C@H](C)NC(=O)c1nccc(OC)c1OCOC(C)=O [compound 187] | 0 to 80% | 0 to 80% | 0 to 80% | 0 to 80% | – | – | – | –
CC[C@H](Cc1ccc(C(F)(F)F)cc1)[C@@H](Cc1ccc(F)cc1)[C@H](C)OC(=O)[C@H](C)NC(=O)c1nccc(OC)c1O [compound 284] | – | – | – | – | 80 to 100% | 80 to 100% | 0 to 80% | –
COc1ccnc(C(=O)N[C@@H](C)C(=O)O[C@@H](C)[C@H](Cc2ccccc2)C(C)(C)OC)c1OCOC(C)=O [compound 245] | 80 to 100% | 80 to 100% | – | 0 to 80% | – | – | – | –
CCCOC[C@@H](Cc1ccccc1)[C@H](C)OC(=O)[C@@H](C)NC(=O)c1nccc(OC)c1O [compound 97] | – | – | – | – | 0 to 80% | 0 to 80% | 0 to 80% | 0 to 80%
COCCC(=O)Oc1c(OC)ccnc1C(=O)N[C@@H](C)C(=O)O[C@@H](C)[C@H](CCC(C)C)c1ccccc1 [compound 212] | 80 to 100% | 80 to 100% | 80 to 100% | 80 to 100% | – | – | – | –
CC[C@H](NC(=O)c1nccc(OC)c1OC(C)=O)C(=O)O[C@@H](C)C(Cc1ccc(OC)cc1)Cc1cccc(OC)c1 (stereo partly drawn) [compound 273] | 0 to 80% | 0 to 80% | 80 to 100% | 0 to 80% | – | – | – | –
COc1ccc(C[C@@H]([C@H](C)OC(=O)[C@H](C)NC(=O)c2nccc(OC)c2OCOC(C)=O)C(C)(C)Oc2ccc(F)cc2F)cc1 [compound 279] | 80 to 100% | 0 to 80% | 0 to 80% | 80 to 100% | – | – | – | –
CCOCC(=O)OCOc1c(OC)ccnc1C(=O)N[C@@H](C)C(=O)O[C@@H](C)[C@@H](COCc1ccccc1)Cc1ccc(F)cc1 [compound 233] | 80 to 100% | 0 to 80% | 0 to 80% | 0 to 80% | – | – | – | –
COC[C@@H](Cc1ccc(F)cc1)[C@H](C)OC(=O)[C@H](C)NC(=O)c1nccc(OC)c1O [compound 135] | – | – | – | – | 80 to 100% | 0 to 80% | 0 to 80% | 0 to 80%
CCCC[C@@H]([C@H](C)OC(=O)[C@H](C)NC(=O)c1nccc(OC)c1OCOC(C)=O)[C@@H](CC)Oc1ccccc1 [compound 189] | 80 to 100% | 80 to 100% | 80 to 100% | 0 to 80% | – | – | – | –
CC[C@H](CCCc1ccccc1)[C@@H](CC(C)C)[C@H](C)OC(=O)C(C)NC(=O)c1nccc(OC)c1OC(C)=O (stereo partly drawn) [compound 172] | 80 to 100% | 0 to 80% | 0 to 80% | 0 to 80% | – | – | – | –
CCCOC(C)(C)[C@@H](Cc1ccc(OC)c(Cc2ccccc2)c1)[C@H](C)OC(=O)[C@H](C)NC(=O)c1nccc(OC)c1OCOC(C)=O [compound 259] | 0 to 80% | – | – | 0 to 80% | – | – | – | –
